{"source": "patent US7517874B2", "about": "(priority 2007, dated 2009)", "key": {"[1]": {"target": "human CB1 receptor (hCB1) (Homo sapiens, UniProt P21554)", "sequence (P21554 whole entry)": "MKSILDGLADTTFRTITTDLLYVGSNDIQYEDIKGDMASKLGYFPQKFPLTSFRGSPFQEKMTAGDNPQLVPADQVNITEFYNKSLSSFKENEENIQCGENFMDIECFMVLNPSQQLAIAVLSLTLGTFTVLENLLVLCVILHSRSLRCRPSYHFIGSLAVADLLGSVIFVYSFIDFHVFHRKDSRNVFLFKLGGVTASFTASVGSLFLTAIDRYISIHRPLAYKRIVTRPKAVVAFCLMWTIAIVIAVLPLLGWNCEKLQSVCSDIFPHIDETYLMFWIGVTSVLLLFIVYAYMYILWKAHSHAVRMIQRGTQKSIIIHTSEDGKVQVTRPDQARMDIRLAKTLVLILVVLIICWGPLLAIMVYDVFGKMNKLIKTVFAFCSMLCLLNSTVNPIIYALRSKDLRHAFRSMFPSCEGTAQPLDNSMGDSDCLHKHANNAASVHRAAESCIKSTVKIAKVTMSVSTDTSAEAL", "experiment": "cell-based", "format": "cell-based", "conditions": "for +/− HCB1: agonist or inverse agonist at hCB1", "how_it_was_run": "(§1)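 First, cells in IBMX-containing HEPES-buffered HBSS are raised to elevated cAMP with 2-8 μM NKH-477 for 30 min. Data are normalised to the forskolin and forskolin + 1 μM CP55,940 controls.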"}, "[2]": {"target": "T1, rat CB2 receptor (rCB2) (Rattus norvegicus, UniProt Q9QZN9)", "T1 sequence (Q9QZN9 1-360)": "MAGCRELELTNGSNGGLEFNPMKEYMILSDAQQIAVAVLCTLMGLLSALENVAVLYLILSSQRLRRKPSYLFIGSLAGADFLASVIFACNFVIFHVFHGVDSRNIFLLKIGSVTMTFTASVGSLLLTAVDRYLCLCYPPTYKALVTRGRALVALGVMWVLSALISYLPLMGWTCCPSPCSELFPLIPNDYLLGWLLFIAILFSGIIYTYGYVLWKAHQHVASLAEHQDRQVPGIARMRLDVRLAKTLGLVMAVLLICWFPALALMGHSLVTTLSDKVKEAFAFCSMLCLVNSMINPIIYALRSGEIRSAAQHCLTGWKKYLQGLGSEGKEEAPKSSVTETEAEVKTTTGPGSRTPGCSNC", "experiment": "cell-based", "format": "cell-based", "conditions": "for +/− RCB2: agonist or inverse agonist at rCB2", "how_it_was_run": "as §1"}}, "note": "Read-outs that look alike come from different tables or passages of the source.", "data": [{"compound": "CCN1CCCn2c(-c3ccccc3)nc(C(=O)N[C@H](c3nc(C)no3)C(C)(C)C)c2C1", "note": "[Compound 524, (S)-N-(2,2-dimethyl-1-(3-methyl-1,2,4-oxadiazol-5-yl)propyl)-8-ethyl-3-phenyl-6,7,8,9-tetrahydro-5H-imidazo[1,5-a][1,4]diazepine-1-carboxamide]", "values": [{"measurement": "EC50", "setting": "[1]", "value": "> 10000", "unit": "nM"}, {"measurement": "+/− RCB2", "setting": "[2]", "value": "−"}]}, {"compound": "Cc1noc([C@@H](NC(=O)c2nc(-c3ccccc3)n3c2CN(C(C)C)CCC3)C(C)(C)C)n1", "note": "[Compound 525, (S)-N-(2,2-dimethyl-1-(3-methyl-1,2,4-oxadiazol-5-yl)propyl)-8-isopropyl-3-phenyl-6,7,8,9-tetrahydro-5H-imidazo[1,5-a][1,4]diazepine-1-carboxamide]", "values": [{"measurement": "EC50", "setting": "[1]", "value": "> 10000", "unit": "nM"}, {"measurement": "+/− RCB2", "setting": "[2]", "value": "−"}]}, {"compound": "CNC(=O)[C@@H](NC(=O)c1nc(-c2ccc(Cl)cc2F)n2c1CN(C1CCN(C(C)=O)CC1)CCC2)C(C)(C)C", "note": "[Compound 527, (S)-8-(1-acetylpiperidin-4-yl)-3-(4-chloro-2-fluorophenyl)-N-(3 3-dimethyl-1-(methylamino)-1-oxobutan-2-yl)-6,7,8,9-tetrahydro-5H-imidazo[1,5-a][1,4]diazepine-1-carboxamide]", "values": [{"measurement": "EC50", "setting": "[1]", "value": "> 10000", "unit": "nM"}, {"measurement": "+/− RCB2", "setting": "[2]", "value": "−"}]}, {"compound": "CNC(=O)[C@@H](NC(=O)c1nc(C2CCC(F)(F)CC2)n2c1CN(C)CCC2)C(C)(C)C", "note": "[Compound 528, (S)-3-(4,4-difluorocyclohexyl)-N-(3,3-dimethyl-1-(methylamino)-1-oxobutan-2-yl)-8-methyl-6,7,8,9-tetrahydro-5H-imidazo[1,5-a][1,4]diazepine-1-carboxamide]", "values": [{"measurement": "EC50", "setting": "[1]", "value": "> 10000", "unit": "nM"}, {"measurement": "+/− RCB2", "setting": "[2]", "value": "+"}]}, {"compound": "CNC(=O)[C@H](CC(C)C)NC(=O)c1nc(-c2ccc(Cl)cc2F)n2c1CN(C)CCC2", "note": "[Compound 529, (S)-3-(4-chloro-2-fluorophenyl)-8-methyl-N-(4-methyl-1-(methylamino)-1-oxopentan-2-yl)-6,7,8,9-tetrahydro-5H-imidazo[1,5-a][1,4]diazepine-1-carboxamide]", "values": [{"measurement": "EC50", "setting": "[1]", "value": "> 10000", "unit": "nM"}, {"measurement": "+/− RCB2", "setting": "[2]", "value": "+"}]}, {"compound": "CNC(=O)[C@H](CC(C)C)NC(=O)c1nc(-c2ccc(F)cc2)n2c1CN(C)CCC2", "note": "[Compound 530, (S)-3-(4-fluorophenyl)-8-methyl-N-(4-methyl-1-(methylamino)-1-oxopentan-2-yl)-6,7,8,9-tetrahydro-5H-imidazo[1,5-a][1,4]diazepine-1-carboxamide]", "values": [{"measurement": "EC50", "setting": "[1]", "value": "> 10000", "unit": "nM"}, {"measurement": "+/− RCB2", "setting": "[2]", "value": "+"}]}, {"compound": "CNC(=O)[C@H](CC(C)C)NC(=O)c1nc(-c2cccc(F)c2)n2c1CN(C)CCC2", "note": "[Compound 531, (S)-3-(3-fluorophenyl)-8-methyl-N-(4-methyl-1-(methylamino)-1-oxopentan-2-yl)-6,7,8,9-tetrahydro-5H-imidazo[1,5-a][1,4]diazepine-1-carboxamide]", "values": [{"measurement": "EC50", "setting": "[1]", "value": "> 10000", "unit": "nM"}, {"measurement": "+/− RCB2", "setting": "[2]", "value": "+"}]}, {"compound": "CNC(=O)[C@H](CC(C)C)NC(=O)c1nc(-c2cc(F)ccc2F)n2c1CN(C)CCC2", "note": "[Compound 532, (S)-3-(2,5-difluorophenyl)-8-methyl-N-(4-methyl-1-(methylamino)-1-oxopentan-2-yl)-6,7,8,9-tetrahydro-5H-imidazo[1,5-a][1,4]diazepine-1-carboxamide]", "values": [{"measurement": "EC50", "setting": "[1]", "value": "> 10000", "unit": "nM"}, {"measurement": "+/− RCB2", "setting": "[2]", "value": "−"}]}, {"compound": "CNC(=O)[C@H](CC(C)C)NC(=O)c1nc(-c2ccc(C(F)(F)F)cc2F)n2c1CN(C)CCC2", "note": "[Compound 533, (S)-3-(2-fluoro-4-(trifluoromethyl)phenyl)-8-methyl-N-(4-methyl-1-(methylamino)-1-oxopentan-2-yl)-6,7,8,9-tetrahydro-5H-imidazo[1,5-a][1,4]diazepine-1-carboxamide]", "values": [{"measurement": "EC50", "setting": "[1]", "value": "> 10000", "unit": "nM"}, {"measurement": "+/− RCB2", "setting": "[2]", "value": "+"}]}, {"compound": "CNC(=O)[C@H](CC(C)C)NC(=O)c1nc(-c2ccc(F)cc2F)n2c1CN(C)CCC2", "note": "[Compound 534, (S)-3-(2,4-difluorophenyl)-8-methyl-N-(4-methyl-1-(methylamino)-1-oxopentan-2-yl)-6,7,8,9-tetrahydro-5H-imidazo[1,5-a][1,4]diazepine-1-carboxamide]", "values": [{"measurement": "EC50", "setting": "[1]", "value": "> 10000", "unit": "nM"}, {"measurement": "+/− RCB2", "setting": "[2]", "value": "+"}]}, {"compound": "CNC(=O)[C@H](CC(C)C)NC(=O)c1nc(-c2ccc(F)c(F)c2)n2c1CN(C)CCC2", "note": "[Compound 535, (S)-3-(3,4-difluorophenyl)-8-methyl-N-(4-methyl-1-(methylamino)-1-oxopentan-2-yl)-6,7,8,9-tetrahydro-5H-imidazo[1,5-a][1,4]diazepine-1-carboxamide]", "values": [{"measurement": "EC50", "setting": "[1]", "value": "> 10000", "unit": "nM"}, {"measurement": "+/− RCB2", "setting": "[2]", "value": "+"}]}, {"compound": "CNC(=O)[C@H](CC(C)C)NC(=O)c1nc(-c2cc(Cl)ccc2F)n2c1CN(C)CCC2", "note": "[Compound 536, (S)-3-(5-chloro-2-fluorophenyl)-8-methyl-N-(4-methyl-1-(methylamino)-1-oxopentan-2-yl)-6,7,8,9-tetrahydro-5H-imidazo[1,5-a][1,4]diazepine-1-carboxamide]", "values": [{"measurement": "EC50", "setting": "[1]", "value": "> 10000", "unit": "nM"}, {"measurement": "+/− RCB2", "setting": "[2]", "value": "+"}]}, {"compound": "CNC(=O)[C@H](CC(C)C)NC(=O)c1nc(-c2ccc(F)c(Cl)c2)n2c1CN(C)CCC2", "note": "[Compound 537, (S)-3-(3-chloro-4-fluorophenyl)-8-methyl-N-(4-methyl-1-(methylamino)-1-oxopentan-2-yl)-6,7,8,9-tetrahydro-5H-imidazo[1,5-a][1,4]diazepine-1-carboxamide]", "values": [{"measurement": "EC50", "setting": "[1]", "value": "> 10000", "unit": "nM"}, {"measurement": "+/− RCB2", "setting": "[2]", "value": "+"}]}, {"compound": "CNC(=O)[C@H](CC(C)C)NC(=O)c1nc(-c2cc(F)c(F)cc2F)n2c1CN(C)CCC2", "note": "[Compound 538]", "values": [{"measurement": "+/− HCB1", "setting": "[1]", "value": "+"}, {"measurement": "+/− RCB2", "setting": "[2]", "value": "+"}]}, {"compound": "CNC(=O)[C@H](CC(C)C)NC(=O)c1nc(-c2cc(Cl)c(F)cc2F)n2c1CN(C)CCC2", "note": "[Compound 539, (S)-3-(5-chloro-2,4-difluorophenyl)-8-methyl-N-(4-methyl-1-(methylamino)-1-oxopentan-2-yl)-6,7,8,9-tetrahydro-5H-imidazo[1,5-a][1,4]diazepine-1-carboxamide]", "values": [{"measurement": "+/− HCB1", "setting": "[1]", "value": "+"}, {"measurement": "+/− RCB2", "setting": "[2]", "value": "+"}]}, {"compound": "CNC(=O)[C@H](CC(C)C)NC(=O)c1nc(C2CCCCC2)n2c1CN(C)CCC2", "note": "[Compound 540, (S)-3-cyclohexyl-8-methyl-N-(4-methyl1-1-(methylamino)-1-oxopentan-2-yl)-6,7,8,9-tetrahydro-5H-imidazo[1,5-a][1,4]diazepine-1-carboxamide]", "values": [{"measurement": "EC50", "setting": "[1]; groups >100 nM-10 μM and >10 μM, cAMP, CHO-K1 hCB1, read-out: EC50 HCB1", "value": "> 10000", "unit": "nM"}, {"measurement": "+/− RCB2", "setting": "[2]", "value": "+"}]}, {"compound": "CNC(=O)[C@@H](NC(=O)c1nc(-c2cc(F)c(F)cc2F)n2c1CN(C)CCC2)C1CCCCC1", "note": "[Compound 541, (S)-N-(1-cyclohexyl-2-(methylamino)-2-oxoethyl)-8-methyl-3-(2,4,5-trifluorophenyl)-6,7,8,9-tetrahydro-5H-imidazo[1,5-a][1,4]diazepine-1-carboxamide]", "values": [{"measurement": "+/− HCB1", "setting": "[1]", "value": "+"}, {"measurement": "+/− RCB2", "setting": "[2]", "value": "+"}]}, {"compound": "CNC(=O)[C@@H](NC(=O)c1nc(-c2cc(Cl)c(F)cc2F)n2c1CN(C)CCC2)C1CCCCC1", "note": "[Compound 542, (S)-3-(5-chloro-2,4-difluorophenyl)-N-(1-cyclohexyl-2-(methylamino)-2-oxoethyl)-8-mehtyl-6,7,8,9-tetrahydro-5H-imidazo[1,5-a][1,4]diazepine-1-carboxamide]", "values": [{"measurement": "+/− HCB1", "setting": "[1]", "value": "+"}, {"measurement": "+/− RCB2", "setting": "[2]", "value": "+"}]}, {"compound": "CNC(=O)[C@@H](NC(=O)c1nc(-c2ccccc2)n2c1CN(C)CCC2)c1ccccc1", "note": "[Compound 543, (S)-8-methyl-N-(2-(methylamino)-2-oxo-1-phenylethyl)-3-phenyl-6,7,8,9-tetrahydro-5H-imidazo[1,5-a][1,4]diazepine-1-carboxamide]", "values": [{"measurement": "EC50", "setting": "[1]", "value": "> 10000", "unit": "nM"}, {"measurement": "+/− RCB2", "setting": "[2]", "value": "+"}]}, {"compound": "CNC(=O)[C@H](CC(C)(C)C)NC(=O)c1nc(-c2ccc(Cl)cc2F)n2c1CN(C)CCC2", "note": "[Compound 544, (S)-3-(4-chloro-2-fluorophenyl)-N-(4,4-dimethyl-1-(methylamino)-1-oxopentan-2-yl)-8-methyl-6,7,8,9-tetrahydro-5H-imidazo[1,5-a][1,4]diazepine-1-carboxamide]", "values": [{"measurement": "+/− HCB1", "setting": "[1]", "value": "+"}, {"measurement": "+/− RCB2", "setting": "[2]", "value": "+"}]}, {"compound": "CNC(=O)[C@H](CC(C)(C)C)NC(=O)c1nc(-c2cc(Cl)ccc2F)n2c1CN(C)CCC2", "note": "[Compound 545, (S)-3-(5-chloro-2-fluorophenyl)-N-(4,4-dimethyl-1-(methylamino)-1-oxopentan-2-yl)-8-methyl-6,7,8,9-tetrahydro-5H-imidazo[1,5-a][1,4]diazepine-1-carboxamide]", "values": [{"measurement": "+/− HCB1", "setting": "[1]", "value": "+"}, {"measurement": "+/− RCB2", "setting": "[2]", "value": "+"}]}, {"compound": "CNC(=O)[C@H](CC(C)(C)C)NC(=O)c1nc(-c2ccc(F)cc2)n2c1CN(C)CCC2", "note": "[Compound 547, (S)-N-(4,4-dimethyl-1-(methylamino)-1-oxopentan-2-yl)-3-(4-fluorophenyl)-8-methyl-6,7,8,9-tetrahydro-5H-imidazo[1,5-a][1,4]diazepine-1-carboxamide]", "values": [{"measurement": "+/− HCB1", "setting": "[1]", "value": "+"}, {"measurement": "+/− RCB2", "setting": "[2]", "value": "+"}]}, {"compound": "CNC(=O)[C@H](CC(C)(C)C)NC(=O)c1nc(-c2cccc(F)c2)n2c1CN(C)CCC2", "note": "[Compound 548, (S)-N-(4,4-dimethyl-1-(methylamino)-1-oxopentan-2-yl)-3-(3-fluorophenyl)-8-methyl-6,7,8,9-tetrahydro-5H-imidazo[1,5-a][1,4]diazepine-1-carboxamide]", "values": [{"measurement": "+/− HCB1", "setting": "[1]", "value": "+"}, {"measurement": "+/− RCB2", "setting": "[2]", "value": "+"}]}, {"compound": "CNC(=O)[C@H](CC(C)(C)C)NC(=O)c1nc(-c2ccc(F)cc2F)n2c1CN(C)CCC2", "note": "[Compound 549, (S)-3-(2,4-difluorophenyl)-N-(4,4-dimethyl-1-(methylamino)-1-oxopentan-2-yl)-8-methyl-6,7,8,9-tetrahydro-5H-imidazo[1,5-a][1,4]diazepine-1-carboxamide]", "values": [{"measurement": "EC50", "setting": "[1]", "value": "> 10000", "unit": "nM"}, {"measurement": "EC50", "setting": "[2]", "value": "> 10", "unit": "µM"}]}]}
